These results are taken from patent US8314140B2, “4-hydroxythiobenzamide derivatives of drugs” (Antibe Therapeutics Inc., priority 2006, dated 2012).

The test system of experiment [1] is visceral pain perception. Briefly: Rat model of visceral pain perception (colorectal distension, AWR score). It counts as in vivo. The settings on record: 0.8 mL colorectal distention; for pain perception score: 100 mg/kg i.p., FIG. 3, FIG. 4. Here is the method:
A rat model of visceral pain perception, a pre-clinical model of irritable bowel syndrome, was used in the following example. Rats (male, Wistar, 200-250 g, obtained from Charles River, Monza, Italy), were housed in plastic cages and maintained under controlled conditions with 12-hours light/dark cycle with lights on at 7.00 AM. Tap water and standard laboratory chow were freely available. Before experiments, rats were individually trained by spending 2-3 hours per day in a plexiglass cage for 2-3 days. It allowed them to adjust to a movement-restriction environment. Food was withheld for 12 hours before colorectal distension (CRD) recording were performed. Experiments were performed in awake rats and were conducted in a blind manner in that the observer was not aware of the identity of drug administered to each animal.
In the testing day, rats were sedated with ether inhalation and a 2 cm long latex balloon was inserted intrarectally 2 cm from the anal verge and fixed at the base of the tail. The balloon was connected via a double-barreled cannula to a pressure transducer to continuously monitoring the rectal pressure by a computer (PowerLab PC, A.D. Instruments, Milford, Mass., USA) and to a syringe for inflation/deflation of the balloon. The rats were then housed in a small cage (20×8×8 cm) on an elevated Plexiglas™ platform and allowed to wake up and adapt for 1 hour. After recovery from sedation, animals underwent the CRD procedure and behavioral responses were tested. The night before the experiments, the balloons were inflated and left overnight so the latex stretched and the balloons became compliant.
CRD of 20 seconds, performed every 5 minutes, was applied in increment of 0.4 ml starting from 0.4 ml up to 1.6 ml water. To achieve an accurate measurement of the colonic parameters and perception, the distensions were repeated twice for each intensity and data for each animal were averaged for analysis. Each animal underwent a double set of CRD. Twenty minutes after the first sequence of CRD (0.4 mL-1.6 ml water), drugs were administered intraperitoneally (i.p.) and a second set of CRD was performed. Behavioral responses during the first and the second set of CRD were assessed and compared.
Behavioral response to CRD was assessed by measuring the abdominal withdrawal reflex (AWR) using a semiquantitative score (1).
A rat model of visceral pain perception as described above was used to compare pain perception scores for 5-amino-2-(4-thiocarbamoyl-phenoxycarbonyloxy)-benzoic acid (Compound XXVII) with or without glibenclamide, an inhibitor of ATP-sensitive K^+ (KATP) channels.
Experiments were carried out as described in Example 13, except that groups of 5 rats each were treated with vehicle, trimebutine maleate (10 mg/kg), or with equimolar doses of trimebutine thiocarbamoylbenzoate (Compound III) or thiocarbamolybenzoate alone.

Experiment [2] can be described thus: H2S generation in buffer and liver homogenate (Example 15). The following applies: for H2S generation in buffer: buffer pH 7.4, 37° C. The class given is in vitro ADME, rat. On the procedure:
(Compound XXVII) was tested for H2S generation under three different conditions. Concentrations of H2S that were generated within 1 hour from 1 mM concentrations of L-cysteine, 4-HBT (4-hydroxythiobenzamide) and 5-amino-2-(4-thiocarbamoyl-phenoxycarbonyloxy)-benzoic acid were measured. H2S release was tested under three conditions: (i) when the compound was in buffer, (ii) when the compound was in a liver homogenate, and (iii) when the compound was in the liver homogenate together with an inhibitor of cystathionine γ-lyase (PAG=DL-propargylglycine; 2 mM). Results are shown in FIG. 6. *p<0.05 compared to the release from the vehicle group. ^ψp>0.05 versus the corresponding ‘homogenate’ group. The enzymatic capacity for H2S production was determined using the same reactor as described previously (Khan et al. (1980) Microchem J 25: 388-395, incorporated herein by reference). Two ml of an assay reaction mixture was introduced in the reactor. The mixture contained 1 mM L-cysteine (or compound), 2 mM pyridoxal 5′-phosphate, 100 mM potassium phosphate buffer (pH=7.4). A constant stream of nitrogen was passed through the mixture via gas-inlet capillary. Reactions were initiated by transferring the tubes from ice bath to a 37° C. water bath. The stream of nitrogen carried the sulfide acid in the second reactor containing 4 ml of sulfide anti-oxidant buffer (SAOB) solution, consisting of 2M KOH, 1M salicylic acid and 0.22M ascorbic acid at pH 12.8[5]. After incubating at 37° C. for 90 minutes, 1 ml of 10% trichloroacetic acid solution was added to mixture to stop the reaction. The remainder H2S in the mixture was carried out via nitrogen stream by other 60 minutes of incubation at 37° C. The concentration of sulfide in SAOB solution was measured with a sulfide sensitive electrode (Model 9616 S^2−/Ag^+ electrode, Orion Research, Beverly, Mass., USA). For studies in which the test compounds were incubated in liver homogenate, 100-150 mg of isolated rat livers were homogenized in 1 ml of ice-cold T-PER protein extractor. The homogenates were added to the reaction mixture at a concentration of 10% (wt/vol). DL-propargylglycine 2 mM was incubated with liver homogenates for 5 min at 37° C. prior the enzyme reaction. Khan, S. U. Morris, G. F. and Hidiroglou, M. (1980) Rapid estimation of sulfide in rumen and blood with a sulfide-specific ion electrode. Microchem J. 25:388-395, incorporated herein by reference.

Experiment [3] deals with T1, COX-1 (Rattus norvegicus, UniProt Q63921).
T1 construct: whole blood thromboxane synthesis, which occurs via COX-1; from tissue; host or cells: rat whole blood, ex vivo after oral dosing
T1 sequence (Q63921 27-602): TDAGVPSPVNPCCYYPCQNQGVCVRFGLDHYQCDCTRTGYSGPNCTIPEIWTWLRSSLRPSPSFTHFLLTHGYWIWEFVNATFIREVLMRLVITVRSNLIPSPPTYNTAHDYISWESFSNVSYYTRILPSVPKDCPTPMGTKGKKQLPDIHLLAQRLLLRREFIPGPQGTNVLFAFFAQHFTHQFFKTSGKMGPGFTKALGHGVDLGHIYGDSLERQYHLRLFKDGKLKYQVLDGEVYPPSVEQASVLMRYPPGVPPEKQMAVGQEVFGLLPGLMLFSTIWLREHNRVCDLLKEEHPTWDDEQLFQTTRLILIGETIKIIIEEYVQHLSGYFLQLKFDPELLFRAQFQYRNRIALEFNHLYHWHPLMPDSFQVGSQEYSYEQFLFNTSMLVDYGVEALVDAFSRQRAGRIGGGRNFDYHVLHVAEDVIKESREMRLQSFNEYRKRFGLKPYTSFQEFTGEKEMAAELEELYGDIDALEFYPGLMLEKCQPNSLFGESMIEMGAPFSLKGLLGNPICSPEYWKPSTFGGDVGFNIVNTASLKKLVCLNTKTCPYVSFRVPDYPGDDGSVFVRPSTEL
Briefly: Whole blood thromboxane B2 synthesis in treated rats. The settings on record: same rats as FIG. 12/13. It counts as in vivo. Here is the method:
Inhibition of COX-1 was also measured using the same rats. […] The samples were then centrifuged for 3 min at 9,000 g and the supernatant was frozen at −80° C. for subsequent measurement of thromboxane B2 concentrations using a specific ELISA.
Inhibition of COX-1 was also measured using the same rats, using the same method as described for FIG. 11.

Consider “5-amino-2-(4-thiocarbamoyl-phenoxycarbonyloxy)-benzoic acid [Compound XXVII]”, for which the pain perception score entry in experiment [1] is “significantly reduced the pain perception”. Moreover, the “pain perception score after glibenclamide pretreatment” value in experiment [1] (glibenclamide 10 mg/kg i.p. 30 min before, FIG. 3) was “reversed by pretreatment with glibenclamide”. In experiment [2] (1 mM compound, 10% rat liver homogenate, FIG. 6), the “H2S generation in liver homogenate” value is listed as “greater when in the presence of tissue”. Also, in experiment [2] (1 mM compound, FIG. 6), the “H2S generation in buffer” value was “releases H2S spontaneously”. Also, the “H2S generation in liver homogenate with PAG” value in experiment [2] (1 mM compound, liver homogenate plus DL-propargylglycine 2 mM, FIG. 6) is recorded as “lack of effect”. Also, the “concentration of H2S produced” value in experiment [2] (1 mM of the compound) lay in the range of 10 to 20 µM.

For the molecule `NC(=S)c1ccc(O)cc1` [4-hydroxythiobenzamide], the pain perception score entry in experiment [1] is recorded as “did not have a significant effect on pain perception”. The “H2S generation in buffer” value in experiment [2] (1 mM compound, FIG. 6) was “did not release significant H2S”. Further, the “COX-1 activity (whole blood thromboxane synthesis)” value in experiment [3] is recorded as “did not significantly affect COX-1 activity”.
